Calls of active or inactive are those of the source. No cut-off for these calls is given here.
How the values were obtained:
[1] = Inhibition of Aspergillus niger amyloglucosidase using starch as substrate after 10 mins by Miller method
Alpha-glucosidase = target: T1, Alpha-glucosidase (Aspergillus niger, UniProt P56526); test: Inhibition of Aspergillus niger alpha-glucosidase using p-nitrophenyl-alpha-D-glucopyranoside as substrate preincubated for 1 hr followed by substrate addition measured after 10 mins by spectrophotometric method
T1 sequence (P56526 whole entry): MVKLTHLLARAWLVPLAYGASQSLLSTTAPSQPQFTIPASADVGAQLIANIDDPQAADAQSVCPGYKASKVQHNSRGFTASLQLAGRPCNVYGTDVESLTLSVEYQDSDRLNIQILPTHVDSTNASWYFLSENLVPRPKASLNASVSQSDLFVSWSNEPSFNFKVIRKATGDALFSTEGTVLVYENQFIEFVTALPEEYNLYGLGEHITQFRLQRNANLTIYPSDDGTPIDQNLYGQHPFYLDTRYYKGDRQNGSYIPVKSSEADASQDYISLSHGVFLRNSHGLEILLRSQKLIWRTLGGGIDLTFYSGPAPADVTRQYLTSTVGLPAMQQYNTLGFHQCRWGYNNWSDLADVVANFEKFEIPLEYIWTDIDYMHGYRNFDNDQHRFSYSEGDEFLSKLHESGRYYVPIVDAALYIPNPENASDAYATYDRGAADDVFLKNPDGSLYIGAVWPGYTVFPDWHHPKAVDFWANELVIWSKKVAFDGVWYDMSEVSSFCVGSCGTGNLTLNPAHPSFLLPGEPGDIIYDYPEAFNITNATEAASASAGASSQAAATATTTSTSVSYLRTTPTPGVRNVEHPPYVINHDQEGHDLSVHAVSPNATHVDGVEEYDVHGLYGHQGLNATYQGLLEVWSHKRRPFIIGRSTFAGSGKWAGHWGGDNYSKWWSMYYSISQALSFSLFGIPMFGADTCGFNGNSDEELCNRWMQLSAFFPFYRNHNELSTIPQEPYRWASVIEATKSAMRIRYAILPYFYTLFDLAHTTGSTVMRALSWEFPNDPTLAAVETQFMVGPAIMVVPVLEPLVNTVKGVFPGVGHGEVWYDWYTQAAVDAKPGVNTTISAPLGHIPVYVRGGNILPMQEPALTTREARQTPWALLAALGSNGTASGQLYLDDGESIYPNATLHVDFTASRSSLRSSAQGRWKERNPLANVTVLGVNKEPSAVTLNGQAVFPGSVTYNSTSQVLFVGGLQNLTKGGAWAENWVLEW

Alpha-mannosidase = target: T2, Alpha-mannosidase (Canavalia ensiformis, UniProt C0HJB3); test: Inhibition of Canavalia ensiformis alpha-mannosidase using p-nitrophenyl-alpha-D-mannopyranoside as substrate preincubated for 1 hr followed by substrate addition measured after 10 mins by spectrophotometric method
T2 sequence (C0HJB3 whole entry): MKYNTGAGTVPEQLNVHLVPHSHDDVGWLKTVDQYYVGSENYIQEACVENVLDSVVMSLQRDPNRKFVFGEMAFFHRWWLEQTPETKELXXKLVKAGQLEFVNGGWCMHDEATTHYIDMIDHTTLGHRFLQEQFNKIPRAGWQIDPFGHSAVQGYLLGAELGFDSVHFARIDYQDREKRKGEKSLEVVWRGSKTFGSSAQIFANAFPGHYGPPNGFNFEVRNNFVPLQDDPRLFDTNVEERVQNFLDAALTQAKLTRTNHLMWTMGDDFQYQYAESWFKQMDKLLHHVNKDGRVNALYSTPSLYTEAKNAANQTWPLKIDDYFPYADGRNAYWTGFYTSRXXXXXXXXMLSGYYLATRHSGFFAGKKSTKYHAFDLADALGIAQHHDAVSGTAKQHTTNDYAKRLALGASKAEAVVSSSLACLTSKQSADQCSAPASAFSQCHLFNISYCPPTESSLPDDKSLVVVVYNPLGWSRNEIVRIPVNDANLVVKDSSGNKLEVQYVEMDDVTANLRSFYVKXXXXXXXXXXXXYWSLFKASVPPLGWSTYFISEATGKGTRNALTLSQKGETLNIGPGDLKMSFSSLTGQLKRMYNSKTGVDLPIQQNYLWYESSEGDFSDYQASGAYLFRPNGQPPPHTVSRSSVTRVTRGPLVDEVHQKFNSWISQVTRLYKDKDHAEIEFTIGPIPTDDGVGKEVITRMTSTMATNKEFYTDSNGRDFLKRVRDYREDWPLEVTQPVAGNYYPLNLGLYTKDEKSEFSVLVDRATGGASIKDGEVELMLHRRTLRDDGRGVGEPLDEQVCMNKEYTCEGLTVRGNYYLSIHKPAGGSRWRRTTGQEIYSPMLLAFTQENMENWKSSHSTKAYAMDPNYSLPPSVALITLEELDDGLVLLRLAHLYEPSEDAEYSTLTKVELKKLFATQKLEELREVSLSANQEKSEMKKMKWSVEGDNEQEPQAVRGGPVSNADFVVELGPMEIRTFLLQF

[2] = target: T3, Alpha-galactosidase (Escherichia coli) (UniProt P16551); test: Inhibition of Escherichia coli alpha-galactosidase at 1 mM using p-nitrophenyl-alpha-D-galactopyranoside as substrate preincubated for 1 hr followed by substrate addition measured after 10 mins by spectrophotometric method
T3 sequence (whole entry): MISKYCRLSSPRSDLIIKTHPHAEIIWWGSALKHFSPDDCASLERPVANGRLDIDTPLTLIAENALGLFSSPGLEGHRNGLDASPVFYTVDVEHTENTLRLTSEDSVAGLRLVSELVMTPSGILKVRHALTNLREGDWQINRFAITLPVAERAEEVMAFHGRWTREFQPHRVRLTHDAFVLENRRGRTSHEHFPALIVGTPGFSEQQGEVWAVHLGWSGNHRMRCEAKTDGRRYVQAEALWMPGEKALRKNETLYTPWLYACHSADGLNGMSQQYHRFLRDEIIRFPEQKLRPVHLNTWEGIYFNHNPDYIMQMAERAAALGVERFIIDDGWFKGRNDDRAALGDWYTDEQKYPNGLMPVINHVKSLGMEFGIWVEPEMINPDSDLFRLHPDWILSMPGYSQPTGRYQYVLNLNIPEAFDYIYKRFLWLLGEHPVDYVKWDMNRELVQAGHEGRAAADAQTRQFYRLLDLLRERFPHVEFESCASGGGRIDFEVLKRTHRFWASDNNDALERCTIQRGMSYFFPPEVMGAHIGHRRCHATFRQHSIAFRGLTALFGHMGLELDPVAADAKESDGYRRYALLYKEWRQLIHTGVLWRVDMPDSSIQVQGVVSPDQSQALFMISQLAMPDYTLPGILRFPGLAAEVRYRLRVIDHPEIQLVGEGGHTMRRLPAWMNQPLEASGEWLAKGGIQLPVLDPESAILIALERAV

Aspergillus niger = test: Inhibition of Aspergillus niger amyloglucosidase at 1 mM using starch as substrate after 10 mins by Miller method
Alpha-galactosidase = target: T4, Alpha-galactosidase (Escherichia coli, UniProt P16551); test: Inhibition of Escherichia coli alpha-galactosidase using p-nitrophenyl-alpha-D-galactopyranoside as substrate preincubated for 1 hr followed by substrate addition measured after 10 mins by spectrophotometric method
T4 sequence (P16551 whole entry): T3 sequence (whole entry)

Molecule OC[C@@H]1N[C@H](CO)[C@@H]1O has an IC50 [1] of 817 µM, an IC50 (Alpha-glucosidase) of 89.4 µM and an IC50 (Alpha-mannosidase) of 200 µM. The inhibition [2] was “inactive”.

For CN1[C@H](C(=O)O)[C@H](O)[C@@H]1CO, the IC50 (Alpha-glucosidase) was 64.6 µM, the IC50 (Alpha-mannosidase) was 83.8 µM and the inhibition (Aspergillus niger) was “inactive”. For the same molecule, the inhibition [2] was “inactive”.

With OCCN1C[C@H](O)[C@@H](O)[C@H](O)[C@H]1CO [MIGLITOL] the IC50 [1] was 201 µM, the IC50 (Alpha-glucosidase) was 57.1 µM and the inhibition [2] was “inactive”.

Work on OC[C@@H]1N[C@H]([C@@H](O)CO)[C@@H]1O yielded an IC50 [1] of 78.2 µM, an IC50 (Alpha-glucosidase) of 53.7 µM and an IC50 (Alpha-galactosidase) of 54.6 µM. For the same molecule, the IC50 (Alpha-mannosidase) was 76 µM.
